Laboratory results as given in patent US11186817B2, “Chemically defined cell culture media additive” (IUCF-HYU (INDUSTRY-UNIVERSITY COOPERATION FOUNDATION …, priority 2014, dated 2021).

Legend:
Assay type in all cases: cell-based, Chinese hamster
[1] = system: CHO DG44 cell line; assay: Effective concentration range of THF: suspension growth of CHO DG44 in HY-CDM media
Text: (§1) 1. Cell line and media: CHO DG44 cell line was used as a DHFR-deficient cell line. The cell line was passaged 80 times or more and suspension adapted in HY-CDM (in-house) media as chemically defined media. The suspension-adapted cell line was used to evaluate the influence of tetrahydrofolate (THF) and dihydrofolate (DHF) and the growth characteristics in commercial chemically defined media. The HY-CDM media were composed of chemically defined components only. Each HY-CDM medium further included a growth factor. HY-CDM media used in Examples 1, 3, and 4 were free of an animal derived lipid mixture, and HY-CDM media used in Example 2 were supplemented with cod liver oil.
(§2) 2. Cell suspension culture: The cell line was inoculated at a density of 4×10^5 cells/ml and cultured in an Erlenmeyer flask with a 30 ml/125 ml working volume on an orbital shaker at 120 rpm under humidified conditions at 37° C. and 5% CO2. Before inoculation, the cells were centrifuged at 1,000 rpm (×162 g) for 5 min, the supernatant was discarded, and the remaining cells were dispersed into single cells in the heated medium. The cells were passaged three times to minimize the influence of the remaining medium under the experimental conditions. The subcultured cells were evaluated.
(§3) 3. Density of live cells: The density of live cells was analyzed using a hemocytometer (Neubauer improved bright-line, Marienfeld, Germany), an inverted microscope (CK30, Olympus, Japan), and trypan blue dye exclusion.
In this example, the effective concentration range of THF inducing the suspension growth of the CHO DG44 cell line in the HY-CDM media was evaluated with varying amounts of THF.
To this end, the CHO DG44 cell line was passaged three time at a THF concentration of 0-480 mg/L, and their maximum cell densities and doubling times were measured.

[2] = system: CHO DG44 cell line; assay: Subculture characteristics of CHO DG44 in HY-CDM medium supplemented with THF; conditions: 1.6 mg/L THF, HY-CDM with cod liver oil
Text: as §1, §2, §3
A CHO DG44 cell line frozen-stored in an HY-CDM medium supplemented with 1.6 mg/L THF was thawed and subcultured every 2 days. On day 2 after the third passage, a cell density of 21.9±2.2×10^5 cells/ml and a doubling time of 20.3±1.3 h were observed, which were about 28% higher and about 20% more rapid than those of the control (17.1±3.4×10^5 cells/ml and 25.3±3.7 h), respectively (Table 2). The HY-CDM medium included a commercial lipid mixture containing cod liver oil as an animal derived component.

[3] = system: CHO DG44 cell line; assay: Growth of CHO DG44 cell line in commercial chemically defined media with and without THF; conditions: six commercial chemically defined media
Text: as §1
2. Cell suspension culture: The cell line was inoculated at a density of 4×10^5 cells/ml and cultured in an Erlenmeyer flask with a 30 ml/125 ml working volume on an orbital shaker at 120 rpm under humidified conditions at 37° C. and 5% CO2. […] The subcultured cells were evaluated.
as §3
In this example, the versatility of the effect of THF addition to induce cell growth was evaluated. […]

[4] = after the third passage, subcultured every 2 days

Substance: tetrahydrofolate [THF]
- Doubling time, Passage 2 ([1]; THF 0.4000 mg/L, HY-CDM): 24.5 h
- Doubling time, Passage 3 ([1]; THF 0.4000 mg/L, HY-CDM): 19.2 h
- Maximum cell density, Average ([1]; THF 0.4000 mg/L, HY-CDM): 29.7 ×10^5 cells/ml
- Maximum cell density, Passage 1 ([1]; THF 0.4000 mg/L, HY-CDM): 30.2 ×10^5 cells/ml
- Maximum cell density, Passage 2 ([1]; THF 0.4000 mg/L, HY-CDM): 28.1 ×10^5 cells/ml
- Maximum cell density, Passage 3 ([1]; THF 0.4000 mg/L, HY-CDM): 30.9 ×10^5 cells/ml
- Cell density increase ([1]; THF 0.8 mg/L, HY-CDM): ~73%
- Doubling time, Average ([1]; THF 0.8000 mg/L, HY-CDM): 20.7 h
- Doubling time, Passage 1 ([1]; THF 0.8000 mg/L, HY-CDM): 22.1 h
- Doubling time, Passage 2 ([1]; THF 0.8000 mg/L, HY-CDM): 22.2 h
- Doubling time, Passage 3 ([1]; THF 0.8000 mg/L, HY-CDM): 17.6 h
- Maximum cell density, Average ([1]; THF 0.8000 mg/L, HY-CDM): 35.3 ×10^5 cells/ml
- Maximum cell density, Passage 1 ([1]; THF 0.8000 mg/L, HY-CDM): 34.2 ×10^5 cells/ml
- Maximum cell density, Passage 2 ([1]; THF 0.8000 mg/L, HY-CDM): 35.4 ×10^5 cells/ml
- Maximum cell density, Passage 3 ([1]; THF 0.8000 mg/L, HY-CDM): 36.4 ×10^5 cells/ml
- Doubling time, Average ([1]; THF 1.6000 mg/L, HY-CDM): 21.3 h
- Doubling time, Passage 1 ([1]; THF 1.6000 mg/L, HY-CDM): 21.4 h
- Doubling time, Passage 2 ([1]; THF 1.6000 mg/L, HY-CDM): 22.0 h
- Doubling time, Passage 3 ([1]; THF 1.6000 mg/L, HY-CDM): 20.5 h
- Maximum cell density, Average ([1]; THF 1.6000 mg/L, HY-CDM): 46.9 ×10^5 cells/ml
- Maximum cell density, Passage 1 ([1]; THF 1.6000 mg/L, HY-CDM): 46.0 ×10^5 cells/ml
- Maximum cell density, Passage 2 ([1]; THF 1.6000 mg/L, HY-CDM): 47.0 ×10^5 cells/ml
- Maximum cell density, Passage 3 ([1]; THF 1.6000 mg/L, HY-CDM): 47.8 ×10^5 cells/ml
- Doubling time, Average ([1]; THF 16.0000 mg/L, HY-CDM): 21.2 h
- Doubling time, Passage 1 ([1]; THF 16.0000 mg/L, HY-CDM): 22.5 h
- Doubling time, Passage 2 ([1]; THF 16.0000 mg/L, HY-CDM): 21.2 h
- Doubling time, Passage 3 ([1]; THF 16.0000 mg/L, HY-CDM): 19.8 h
- Maximum cell density, Average ([1]; THF 16.0000 mg/L, HY-CDM): 50.1 ×10^5 cells/ml
- Maximum cell density, Passage 1 ([1]; THF 16.0000 mg/L, HY-CDM): 52.0 ×10^5 cells/ml
- Maximum cell density, Passage 2 ([1]; THF 16.0000 mg/L, HY-CDM): 48.8 ×10^5 cells/ml
- Maximum cell density, Passage 3 ([1]; THF 16.0000 mg/L, HY-CDM): 49.6 ×10^5 cells/ml
- Doubling time ([1]; THF 0.025-16 mg/L, HY-CDM): 21.3 ± 0.7 h
- More rapid cell growth compared to control ([1]; THF 0.025-16 mg/L, HY-CDM): ≥ 14%
- Effect on cell growth ([1]; THF 0.1-160 mg/L, chemically defined media): effective in improving the cell growth
- Cell growth increase ([1]; THF 0.1-0.2 ma/L, HY-CDM): ≥ 35%
- Cell density increase ([1]; THF 160 mg/L, HY-CDM): ~90%
- Doubling time, Average ([1]; THF 160.0000 mg/L, HY-CDM): 23.0 h
- Doubling time, Passage 1 ([1]; THF 160.0000 mg/L, HY-CDM): 25.8 h
- Doubling time, Passage 2 ([1]; THF 160.0000 mg/L, HY-CDM): 21.6 h
- Doubling time, Passage 3 ([1]; THF 160.0000 mg/L, HY-CDM): 21.6 h
- Maximum cell density, Average ([1]; THF 160.0000 mg/L, HY-CDM): 35.7 ×10^5 cells/ml
- Maximum cell density, Passage 1 ([1]; THF 160.0000 mg/L, HY-CDM): 33.0 ×10^5 cells/ml
- Maximum cell density, Passage 2 ([1]; THF 160.0000 mg/L, HY-CDM): 36.4 ×10^5 cells/ml
- Maximum cell density, Passage 3 ([1]; THF 160.0000 mg/L, HY-CDM): 37.6 ×10^5 cells/ml
- Effect on cell growth ([1]; THF 480 mg/L, HY-CDM): inhibited the cell growth
- Maximum cell density, Average ([1]; THF 480.0000 mg/L, HY-CDM): 06.3 ×10^5 cells/ml
- Maximum cell density, Passage 1 ([1]; THF 480.0000 mg/L, HY-CDM): 09.4 ×10^5 cells/ml
- Maximum cell density, Passage 2 ([1]; THF 480.0000 mg/L, HY-CDM): 04.6 ×10^5 cells/ml
- Maximum cell density, Passage 3 ([1]; THF 480.0000 mg/L, HY-CDM): 04.8 ×10^5 cells/ml
- Cell density increase (maximum) ([1]; THF 1.6-16 mg/L, HY-CDM): ≥ 155%
- Cell density higher than control ([2]; after the third passage): about 28%
- Doubling time more rapid than control ([2]; after the third passage): about 20%
- Cell density on day 2 [2, 4]: 21.9±2.2 ×10^5 cells/ml
- Doubling time [2, 4]: 20.3 ± 1.3 h
- Density of live cells on day 2 after culture ([2]; number of subcultures 3): 19.2 ×10^5 cells/ml
- Doubling time ([2]; number of subcultures 3): 21.6 h
- Density of live cells on day 2 after culture ([2]; number of subcultures 4): 22.3 ×10^5 cells/ml
- Doubling time ([2]; number of subcultures 4): 21.1 h
- Density of live cells on day 2 after culture ([2]; number of subcultures 5): 19.1 ×10^5 cells/ml
- Doubling time ([2]; number of subcultures 5): 18.8 h
- Density of live cells on day 2 after culture ([2]; number of subcultures 6): 23.3 ×10^5 cells/ml
- Doubling time ([2]; number of subcultures 6): 20.2 h
- Density of live cells on day 2 after culture ([2]; number of subcultures 7): 23.5 ×10^5 cells/ml
- Doubling time ([2]; number of subcultures 7): 21.3 h
- Density of live cells on day 2 after culture ([2]; number of subcultures 8): 24.1 ×10^5 cells/ml
- Doubling time ([2]; number of subcultures 8): 18.6 h
- Effect on cell density and growth rate [3]: increased the cell density and growth rate
